Measurements as given in patent US10344019B2 (priority 2010, dated 2019).
Read-outs that look alike come from different tables or passages of the source.

What was measured:
Assay type in all cases: cell-based
[1] = test system: HCV 1b RLuc cells (dicistronic genotype 1b Con1 replicon, RLuc reporter); assay: microbe, parasite or virus in culture; details: Hepatitis C virus, read-out: 1b (nM)
In short: (§1)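 Replicons used: genotype 1b Con1, 1a H77, 2a JFH-1, and a 2a JFH-1 chimera with J6-strain NS5A (M31 present), all dicistronic.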

[2] = test system: HCV 1a RLuc cells (dicistronic genotype 1a H77 replicon, RLuc reporter); assay: microbe, parasite or virus in culture; details: Hepatitis C virus, read-out: 1a
In short: as §1

[3] = test system: HCV 2b Rluc cells (NS5A chimeric genotype 2a JFH-1 replicon with genotype 2b MD2b-1 NS5A gene, M31 present); assay: microbe, parasite or virus in culture; details: Hepatitis C virus, read-out: 2b
In short: (§2)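 Replicon cells stably carrying the listed RLuc-encoding dicistronic replicons were seeded and treated with DMSO serial dilutions of compound (10 mM stocks) diluted into culture medium. After 72 h, cells were lysed and Renilla luciferase activity measured. EC50 was derived by non-linear regression.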

[4] = test system: HCV 2a JFH-1 Rluc cells (dicistronic genotype 2a JFH-1 replicon, RLuc reporter); assay: microbe, parasite or virus in culture; details: Hepatitis C virus, read-out: 2a JFH
In short: as §1

[5] = test system: HCV 3a RLuc cells (NS5A chimeric genotype 1b Con1 replicon with consensus genotype 3a NS5A gene); assay: microbe, parasite or virus in culture; details: Hepatitis C virus
In short: as §2

[6] = test system: HCV 4a Rluc cells (NS5A chimeric genotype 1b Con1 replicon with genotype 4a NS5A gene); assay: microbe, parasite or virus in culture; details: Hepatitis C virus, read-out: 4a
In short: as §2

[7] = test system: HCV 2a Rluc cells (NS5A chimeric genotype 2a JFH-1 replicon with genotype 2a J6 strain NS5A gene, M31 present); assay: HCV replicon reporter assay, genotype 2a J6 (M31 present); details: Hepatitis C virus, read-out: 2a J6
In short: as §1

[8] = read-out: 3a, genotype 3a replicon

Compound | EC50 [1] [nM] | EC50 ([2]; genotype 1a replicon) [nM] | EC50 [3] [nM] | EC50 ([4]; genotype 2a JFH-1 replicon) [nM] | EC50 [5, 8] [nM] | EC50 [6] [nM] | EC50 [7] [nM] | EC50 ([2]; genotype 1a H77 RLuc replicon) [nM] | EC50 ([4]; genotype 2a JFH-1 RLuc replicon) [nM] | EC50 ([5]; read-out: 3a, genotype 3a NS5A chimeric replicon) [nM]
COC(=O)N[C@H](C(=O)N1CC2(C[C@H]1c1nc3c([nH]1)-c1ccc(-c4ccc5c(ccc6nc([C@@H]7CCCN7C(=O)[C@H](NC(=O)OC)c7ccccc7)[nH]c65)c4)cc1CC3)OCCO2)C(C)C [Example 355] | 0.095 | 0.001 to 0.999 | 1 to 44 | 0.001 to 0.999 | 0.001 to 0.99 | 0.001 to 0.99 | 1 to 44 |  |  | 
O=C(N[C@@H](C(=O)N1CCC[C@H]1c1ncc(-c2cc3c4c(c2)OCc2cc(-c5cnc([C@@H]6CCCN6C(=O)[C@H](NC(=O)C6CC6)c6ccccc6)[nH]5)cc(c2-4)OC3)[nH]1)c1ccccc1)C1CC1 [Example 443] | 0.167 | 0.001 to 0.999 | 0.001 to 0.999 | 0.001 to 0.999 | 0.001 to 0.99 | 0.001 to 0.99 | 0.001 to 0.999 |  |  | 
CC(C)C(=O)N[C@@H](C(=O)N1CCC[C@H]1c1ncc(-c2cc3c4c(c2)OCc2cc(-c5cnc([C@@H]6CCCN6C(=O)[C@H](NC(=O)C(C)C)c6ccccc6)[nH]5)cc(c2-4)OC3)[nH]1)c1ccccc1 [Example 468] | 0.113 | 0.001 to 0.999 | 0.001 to 0.999 | 0.001 to 0.999 | 0.001 to 0.99 | 0.001 to 0.99 | 0.001 to 0.999 |  |  | 
COC[C@H]1C[C@@H](c2ncc(-c3cc4c5c(c3)OCc3cc(-c6cnc([C@@H]7CC[C@H](C)N7C(=O)[C@@H](NC(=O)OC)C(C)C)[nH]6)cc(c3-5)OC4)[nH]2)N(C(=O)[C@@H](NC(=O)OC)C(C)C)C1 [Example 595] | 0.02 |  | 1 to 44 |  |  | 0.001 to 0.99 | > 44 | 0.001 to 0.999 | 0.001 to 0.999 | 0.001 to 0.99
COC(=O)N[C@H](C(=O)N1CC2(C[C@H]1c1nc3ccc4cc(-c5ccc6c(ccc7nc([C@@H]8CCCN8C(=O)[C@H](NC(=O)OC)c8ccccc8)[nH]c76)c5)ccc4c3[nH]1)OCCO2)C(C)C [Example 323] | 0.043 | 0.001 to 0.999 | 0.001 to 0.999 | 0.001 to 0.999 | 0.001 to 0.99 | 0.001 to 0.99 | 0.001 to 0.999 |  |  | 
COC(=O)N[C@H](C(=O)N1CCC[C@H]1c1ncc(-c2cc3c4c(ccc5cc(-c6cnc([C@@H]7CCCN7C(=O)[C@@H](NC(=O)OC)C(C)C)[nH]6)cc(c54)OC3)c2)[nH]1)C(C)C [Example 408] | 0.022 | 0.001 to 0.999 | > 44 | 0.001 to 0.999 | 0.001 to 0.99 | 0.001 to 0.99 | > 44 |  |  | 
O=C(CC1CC1)N[C@@H](C(=O)N1CCC[C@H]1c1ncc(-c2cc3c4c(c2)OCc2cc(-c5cnc([C@@H]6CCCN6C(=O)[C@H](NC(=O)CC6CC6)c6ccccc6)[nH]5)cc(c2-4)OC3)[nH]1)c1ccccc1 [Example 465] | 0.176 | 0.001 to 0.999 | 0.001 to 0.999 | 0.001 to 0.999 | 0.001 to 0.99 | 0.001 to 0.99 | 0.001 to 0.999 |  |  | 
CC(C)[C@@H](C(=O)N[C@@H](C(=O)N1CCC[C@H]1c1ncc(-c2cc3c4c(c2)OCc2cc(-c5cnc([C@@H]6CCCN6C(=O)[C@H](NC(=O)[C@H](C(C)C)N(C)C)c6ccccc6)[nH]5)cc(c2-4)OC3)[nH]1)c1ccccc1)N(C)C [Example 484] | 0.953 | > 44 | > 44 | 0.001 to 0.999 | 0.001 to 0.99 | 0.001 to 0.99 | > 44 |  |  | 
COC(=O)N[C@@H](C(=O)N1[C@@H](C)CC[C@H]1c1ncc(-c2cc3c4c(c2)OCc2cc(-c5cnc([C@@H]6CC[C@H](C)N6C(=O)[C@H](NC(=O)OC)c6ccccc6)[nH]5)cc(c2-4)OC3)[nH]1)c1ccccc1 [Example 461] | 0.02 | 0.001 to 0.999 | 0.001 to 0.999 | 0.001 to 0.999 | 0.001 to 0.99 | 0.001 to 0.99 | 1 to 44 |  |  | 
